# From US9605029B2, “Antibody-binding peptide” (NATIONAL INSTITUTE OF ADVANCED INDUSTRIAL SCIENCE AND …, priority 2013, dated 2017)
# Test system: Fc region (Jackson ImmunoResearch Laboratories, Inc.) labeled with horseradish peroxidase (HRP)
# Experiment: ELISA of recombinant phages displaying polypeptides (Example 1, 6)
# Assay type: binding, human
# Settings: recombinant T7 phage displaying the polypeptide; absorbance at 415 nm; control 0.08
# Method: 6) In this section, it will be stated as an example that the binding activity of recombinant phages transformed by nucleic acids encoding the amino acid sequences represented by SEQ ID NOs: 2 to 9 and 11 to 19 was measured by Enzyme Linked Immuno-Sorbent Assay (ELISA).
# DNA molecules encoding the amino acid sequences of SEQ ID NOs: 2 to 9 and 11 to 19 were amplified by a polymerase chain reaction (PCR). PCR was carried out using KOD DNA polymerase (TOYOBO) under reaction conditions according to the accompanying manual. The amplified DNA molecules were each digested with restriction enzymes EcoRI and HindIII and ligated to 3′ terminal of g10 gene on T7 phage genomic DNA. Ligation to T7 phage genomic DNA was performed by use of a sample attached to T7Select10-3 Cloning Kit (Novagen) under the reaction conditions and in accordance with the procedure described in the accompanying T7Select (registered trade mark) System Manual. Using T7 phage genomic DNA ligated, T7 phage was packaged in a test tube by T7Select Packaging Kit (Novagen) under the reaction conditions in accordance with T7Select (registered trade mark) System Manual (Novagen). Subsequently, phage plaques were formed in accordance with T7Select (registered trade mark) System Manual (Novagen). From each of the plaques, a recombinant phage displaying the polypeptide was isolated. To MICROTEST (registered trade mark) 96 (BECTON, DICKINSON AND COMPANY), a culture solution (0.2 mL) of Escherichia coli BL5403 strain cultured in LB medium until O.D.600 reached 1.0 was poured to infect with the Escherichia coli cells each of the recombinant phages isolated from plaques and allowed to stand still at 37° C. for 12 hours to proliferate phages. The culture solution (10 μL) containing these phages was diluted in 90 μL of TBS buffer (50 mM Tris-HCl, 150 mM NaCl, pH 7.4) to prepare measurement samples.
# (§1) The measurement samples were poured to MEDISORP 96 well microplate (Nunc) and allowed to stand still for one hour to allow the phage to physically adsorb to the plate. After the supernatant was removed, SuperBlock (registered trade mark) T20 (TBS) Blocking Buffer (Thermo […]) (150 μL) was poured to the plate and allowed to stand still for one hour to block the surface of the plate. The plate was washed three times with TBS-T buffer (50 mM Tris-HCl, 150 mM NaCl, 0.1% Tween 20 (registered trade mark), pH 7.4). To the plate, TBS-T buffer (100 μL) containing an Fc region (Jackson ImmunoResearch Laboratories, Inc.) (0.2 μg/mL) labeled with horseradish peroxidase (HRP) was added and allowed to stand still for one hour. After the plate was washed three times with TBS-T buffer, ABTS One Component HRP Microwell Substrate (BioFX) (100 μL) was poured to the plate. Binding activity was detected through a color reaction. The absorbance at 415 nm (O.D.415) was measured by a microplate absorbance reader Sunrise R (TECAN GROUP LTD.). TBS-T buffer containing no phages was used as a negative control in a control experiment.
# (§2) ELISA results of the recombinant phages displaying polypeptides containing amino acid sequences represented by SEQ ID NOs: 2 to 9 and the recombinant phages displaying polypeptides containing amino acid sequences represented by SEQ ID NOs: 11 to 19 are shown in Table 2A and Table 2B, respectively.
row,O.D. 415,Substance
1,0.223,"8 (YDPVTGTWTSSIASWMG; IgG binding peptide, G11) [compound 8]"
2,0.193,"9 (YDPRTGTWRRSSLSYSG; IgG binding peptide, sA7) [compound 9]"
3,0.149,"6 (YDPWTGTWRSFIWGGGG; IgG binding peptide, sC12) [compound 6]"
4,0.214,"7 (YDPRTGTWLLYASRLLG; IgG binding peptide, G3) [compound 7]"
5,0.155,"5 (YDPGTGTWRSWLSFNVG; IgG binding peptide, E7) [compound 5]"
6,0.278,"3 (YDPGTGTWRSYLRFGGG; IgG binding peptide, H3) [compound 3]"
7,0.165,"4 (YDPYTGTWRSSIWVLSG; IgG binding peptide, D5) [compound 4]"

# Same assay, conditions: recombinant T7 phage displaying the polypeptide; absorbance at 415 nm; control 0.101
row,O.D. 415,Substance
1,0.396,"15 (TGRGRSARYDPRTGTWRSSIAYGGG; IgG binding peptide, 2F2) [compound 15]"
2,0.282,"14 (SWRRRGSSYDPRTGTWRSSIAYGGG; IgG binding peptide, 2H1) [compound 14]"
3,0.36,"18 (GSVVRWRGYDPRTGTWRSSIAYGGG; IgG binding peptide, 2F7) [compound 18]"
4,0.373,"16 (HWVNGRSGYDPRTGTWRSSIAYGGG; IgG binding peptide, 2F4) [compound 16]"
5,0.353,"19 (GAVYRRSFYDPRTGTWRSSIAYRGG; IgG binding peptide, 2F9) [compound 19]"
6,0.267,"12 (AGSRRAHGYDPRTGTWRSSIAYGGG; IgG binding peptide, 2A4) [compound 12]"

# Test system: Fc region (Jackson ImmunoResearch Laboratories, Inc.) labeled with horseradish peroxidase (HRP)
# Experiment: ELISA of recombinant phages displaying polypeptides (Example 2, 6)
# Assay type: binding, human
# Settings: recombinant T7 phage displaying the polypeptide; absorbance at 415 nm; control 0.098
# Method: 6) In this section, it will be stated as an example that the binding activity of recombinant phages transformed by nucleic acids encoding amino acid sequences represented by SEQ ID NOs: 26, 27, 30 to 55, 57, 63 to 72 and 79 to 81 was measured by Enzyme Linked Immuno-Sorbent Assay (ELISA).
# DNA molecules encoding amino acid sequences of SEQ ID NOs: 26, 27, 30 to 55, 57, 63 to 72 and 79 to 81 were amplified by a polymerase chain reaction (PCR) using KOD DNA polymerase (TOYOBO) under the reaction conditions according to the accompanying manual. Each of the amplified DNA was digested with restriction enzymes EcoRI and HindIII, and ligated to the 3′ terminal of g10 gene on T7 phage genomic DNA. Ligation to T7 phage genomic DNA was performed by use of a sample attached to T7Select10-3 Cloning Kit (Novagen) under the reaction conditions and in accordance with the procedure described in T7Select (registered trade mark) System Manual. Using T7 phage genomic DNA ligated, T7 phage was packaged in a test tube by T7Select Packaging Kit (Novagen) under the reaction conditions in accordance with T7Select (registered trade mark) System Manual (Novagen). Subsequently, phage plaque was formed in accordance with T7Select (registered trade mark) System Manual (Novagen). From each of the plaques, a recombinant phage displaying the polypeptide was isolated. To MICROTEST (registered trade mark) 96 (BECTON, DICKINSON AND COMPANY), a culture solution (0.2 mL) of Escherichia coli BL5403 strain cultured in LB medium until O.D.600 reached 1.0 was poured to infect with the Escherichia coli cells each of the recombinant phages isolated from plaques and allowed to stand still 37° C. for 12 hours to proliferate phages. The culture solution (10 μL) containing these phages was diluted in 90 μL of TBS buffer (50 mM Tris-HCl, 150 mM NaCl, pH 7.4) to prepare measurement samples.
# as §1, with “plate. The” for “plate. After the”, “was removed and” for “was removed,”, “plate. The binding” for “plate. Binding”, “a […]” for “a color”
# as §2, with “26, 27 and 30” for “2”, “55” for “9”, “57, 63” for “11”, “72 and 79 to 81” for “19”, “5A” for “2A”, “5B,” for “2B,”
row,O.D. 415,Substance
1,0.215,"80 (LIPPGGISPWYDPETGTWYDAAWHLGELVWATYYDPETGTWEPDWQRMLGQ; IgG binding peptide, p25_2) [compound 80]"
2,0.229,"57 (GPGISAFSPGRGVYDPETGTWYDAAWHLGELVWATYYDPETGTWEPDWQRMLGQ; IgG binding peptide, p17) [compound 57]"
3,0.182,"66 (WPLNAPSSAFYDPETGTWYDAAWHLGELVWATYYDPETGTWEPDWQRMLGQ; IgG binding peptide, p13) [compound 66]"

# Same assay, conditions: recombinant T7 phage displaying the polypeptide; absorbance at 415 nm; control 0.11
row,Substance,O.D. 415
1,"33 (DAAWHLGELVWATYYDPETGTWVPDWERMKQH; IgG binding peptide, pep31) [compound 33]",0.305
2,"30 (DAAWHLGELVWATYYDPETGTWEPDWKLMQRP; IgG binding peptide, pep7) [compound 30]",0.287
3,"31 (DAAWHLGELVWATYYDPETGTWQPDWDIMAGH; IgG binding peptide, pep25) [compound 31]",0.295
4,"27 (DAAWHLGELVWATYYDPETGTWEPDWQRMLGQ; IgG binding peptide, pep24) [compound 27]",0.289
5,"26 (DAAWHLGELVWATYYDPETGTWLPDWQTMAQK; IgG binding peptide, pep21) [compound 26]",0.43

# Results, then the substance that gave them:
row,O.D. 415,Substance
1,0.243,"44 (DAAWHLGELVWATYYDPETGTWIPDWTRMQTW; IgG binding peptide, pep16) [compound 44]"
2,0.273,"42 (DAAWHLGELVWATYYDPETGTWAPDWNRMRDFNRSFREV; IgG binding peptide, pep29) [compound 42]"
3,0.251,"40 (DAAWHLGELVWATYYDPETGTWQPDWKRMTSR; IgG binding peptide, pep10) [compound 40]"
4,0.265,"51 (DAAWHLGELVWATYYDPETGTWLPDWNLMGQH; IgG binding peptide, pep26) [compound 51]"
5,0.346,"49 (DAAWHLGELVWATYYDPETGTWVPDWDTMHAAINRSFREV; Artificial Sequence, pep22; IgG binding peptide) [compound 49]"
6,0.32,"35 (DAAWHLGELVWATYYDPETGTWRPDWAVMATP; IgG binding peptide, pep2) [compound 35]"
7,0.243,"46 (DAAWHLGELVWATYYDPETGTWLPDWSQMRPQ; IgG binding peptide, pep18) [compound 46]"
8,0.244,"50 (DAAWHLGELVWATYYDPETGTWIPDWRAMSQF; IgG binding peptide, pep23) [compound 50]"
9,0.373,"48 (DAAWHLGELVWATYYDPETGTWQPDWSVMKSL; IgG binding peptide, pep20) [compound 48]"
